Results: paper PMC12040169 (PLOS Biology, 2025)

test: in vitro; conditions: human, hela cells, % viability

Compound | viability at 28.5 h, 10 µM [%]
CCCn1c(SC(C)C(=O)Nc2ccc(S(=O)(=O)NC(C)C)cc2)n[nH]c1=O (stereo not drawn) [CBK295169] | 87.9
Cc1ccc(SCCC(=O)NC(CCC(=O)O)C(=O)O)cc1 (stereo not drawn) [CBK295173] | 88
Cc1ccc(SCCC(=O)NC(CC(=O)O)C(=O)O)cc1 (stereo not drawn) [CBK295174] | 103
O=C(Cc1csc(-c2ccc(F)cc2)n1)Nc1ccc(F)cc1 [CBK295177] | 82.3
Cc1[nH]c(C(=O)NCCc2ccco2)c(C)c1C(=O)OC(C)C [CBK295180] | 84.1
CN(C)c1cccc(C(=O)Nc2ccccc2N2CCOCC2)c1 [CBK295184] | 76.2
CN(CC(=O)Nc1ccccc1N1CCCC1)Cc1cnn(Cc2ccccc2)c1 [CBK295187] | 105
CN(CC(=O)Nc1ccc(N(C)C)cc1)Cc1ccc(F)cc1 [CBK295188] | 86.1
Cn1c(SCc2cc(-c3ccc(Cl)cc3)no2)nnc1-c1ccco1 [CBK295193] | 81.9
Cc1ccnc2nc(C(=O)Nc3ccc4c(c3)CCC4)nn12 [CBK295194] | 74.9
NC(=O)COc1ccc(C2Nc3ccccc3C(=O)N2C2CC2)cc1 (stereo not drawn) [CBK295198] | 98.2
Cn1nc(-c2ccc(Cl)cc2)cc1NC(=O)Cn1nnc(-c2ccc(F)cc2)n1 [CBK295203] | 82.7
Cc1ccc(C)c(-n2nnnc2SC(C)C(=O)N2CCCC2)c1 (stereo not drawn) [CBK295204] | 79.9
C=CCn1c(-c2sc(NC(=O)c3ccc(C)c(C)c3)nc2C)n[nH]c1=S [CBK295294] | 88.7
O=C(O)c1cccc(NS(=O)(=O)c2ccc(S(=O)(=O)N3CCCCC3)cc2)c1 [CBK295295] | 101
O=C(O)c1cc(Cl)c(OCc2cc(-c3ccccc3)no2)c(Cl)c1 [CBK295297] | 86.7
C=CCn1c(Cc2csc(NC(=O)c3ccc(C(C)=O)s3)n2)n[nH]c1=S [CBK295299] | 77
CCOc1ccc(-c2nc(CC(=O)O)cs2)cc1 [CBK295300] | 87.7
Cc1nn(CC(C)C)c(C)c1CCC(=O)N(C)Cc1c(C)nn(-c2ccccc2)c1C [CBK295301] | 108
Cc1cc(COC(=O)c2nn(-c3ccc(F)cc3)c3c2CCCC3)on1 [CBK295305] | 105
CCOC(=O)c1ccc(S(=O)(=O)Nc2cc(C(=O)O)ccc2F)cc1 [CBK295308] | 84

Compound | viability at 28.5 h, 10 µM [%]
Cc1cc(C(=O)CSc2nnc(C3CC3)[nH]2)c(C)n1-c1cccc(C(F)(F)F)c1 [CBK295310] | 80.6
C=CCn1c(Cc2csc(NC(=O)Cc3cc(OC)c(OC)c(OC)c3)n2)n[nH]c1=S [CBK295311] | 87.1
O=c1[nH]c2ccc(NS(=O)(=O)c3ccc4c(c3)OCCCO4)cc2[nH]1 [CBK295315] | 87.7
O=[N+]([O-])c1ccc(NC(c2ccccc2)C2CC2)nc1 (stereo not drawn) [CBK295317] | 96.6
C=CCn1c(Cc2csc(NC(=O)c3cnc(C)cn3)n2)n[nH]c1=S [CBK295319] | 90.4
O=C(Cn1nc(C(=O)O)c2ccccc2c1=O)NCc1ccc(Cl)cc1Cl [CBK295320] | 85.4
COc1ccc(NC(=O)C(C)n2nc(C(=O)O)c3ccccc3c2=O)cc1 (stereo not drawn) [CBK295322] | 107
O=C(NCc1nc2ccccc2s1)c1ccc2c(c1)OCCO2 [CBK295325] | 107
Cc1ccc(C(=O)Nc2nc(C)c(-c3n[nH]c(=S)n3C)s2)cn1 [CBK295327] | 91.8
C=CCn1c(Cc2csc(NC(=O)c3cc4ccccc4o3)n2)n[nH]c1=S [CBK295329] | 104
COc1cc2c(cc1OC)CN(C(=O)c1ccc3[nH]cnc3c1)CC2 [CBK295331] | 52.8
CC1CCN(S(=O)(=O)c2ccc(NC(=O)C3=COCCO3)cc2)CC1 [CBK295332] | 102
CCc1ccc(CN(C)C(=O)COC(=O)c2cc(-c3ccccc3)nc3onc(C)c23)cc1 [CBK295334] | 89.5
Cc1nc(NC(=O)c2cccc(NC(=O)C3CCCO3)c2)sc1-c1n[nH]c(=S)n1C (stereo not drawn) [CBK295341] | 86.9
COc1ccc(-c2n[nH]c(=S)n2CC(=O)Nc2ccc(NC(=O)CC(C)C)cc2)cc1 [CBK295342] | 100
Cc1cc(NS(=O)(=O)c2ccc(Oc3ccc(-c4ccccc4)cc3)nc2)no1 [CBK295343] | 90.8
Cc1ccc(C(CC(=O)O)NC(=O)c2ccc(S(=O)(=O)N3CCCC(C)C3)cc2)cc1 (stereo not drawn) [CBK295345] | 95.7
O=C(c1ccc2[nH]nnc2c1)N1CCN(S(=O)(=O)Cc2ccccc2)CC1 [CBK295346] | 79.3
O=C(CCc1nc(O)c2c3c(sc2n1)CCCC3)NCC(=O)Nc1ccccc1Br [CBK295348] | 101
Nc1ncccc1C(=O)OCc1ccc(-c2ccccc2)cc1 [CBK295353] | 94.2
COC(=O)C1=C(C)N(c2ccc(C(=O)O)cc2)C(=O)NC1c1cccc(OC)c1OC (stereo not drawn) [CBK295355] | 112

Compound | viability at 28.5 h, 10 µM [%]
CCCCn1c(SCc2nc(-c3cccc(Cl)c3)no2)n[nH]c1=O [CBK295356] | 116
C=CCn1c(Cc2csc(NC(=O)c3cc(C)cc(C)c3)n2)n[nH]c1=S [CBK295358] | 77
C=CCn1c(Cc2csc(NC(=O)Cc3ccc(Cl)cc3)n2)n[nH]c1=S [CBK295359] | 96.3
Cc1noc(C)c1C(=O)N(C)CC(=O)Nc1ccc(Cl)c(C(F)(F)F)c1 [CBK295363] | 95.7
Nc1ncnc2sc3c(c12)CCN(C(=O)c1ccc2nccnc2c1)C3 [CBK295588] | 102
Cc1cc(-n2c(C)cc(C(=O)CSc3n[nH]c(=O)n3CC3CCCO3)c2C)no1 (stereo not drawn) [CBK295589] | 112
CN(C(=O)COC(=O)c1cc(-c2ccco2)nc2ccccc12)C1(C#N)CCCCC1 [CBK295591] | 93.2
O=c1[nH]nc(SCCCOc2ccc(Cl)cc2)n1C1CC1 [CBK295597] | 115
Cc1cccc(OCCNC(=O)CSc2n[nH]c(=O)n2C2CC2)c1 [CBK295599] | 94.2
O=C(CNC(=O)C1CC=CCC1C(=O)O)Nc1ccc(N2CCCCCC2)cc1 (stereo not drawn) [CBK295603] | 90.8
Cc1c(C=Cc2cc(C(=O)O)c3ccccc3n2)cc(C#N)n1C [CBK295604] | 104
O=C(Nc1ccnn1Cc1cccs1)c1cc(=O)[nH]c2ccccc12 [CBK295606] | 102
Cc1cc(C(=O)Nc2nnc(Cc3ccccc3)s2)c2ccccc2n1 [CBK295607] | 93.3
COc1ccc(N)cc1OCc1cn2ccccc2n1 [CBK295609] | 57.2
Cc1c(C(=O)O)sc2nc(C=Cc3cc([N+](=O)[O-])ccc3Cl)[nH]c(=O)c12 [CBK295613] | 121
COc1ccc(C(=O)C=c2[nH]c(=O)c(=Cc3ccc(C(=O)O)cc3)s2)cc1 [CBK295614] | 99.6
CCCn1c(SCC(=O)Nc2scc(CC(C)C)c2C(=O)OCC)n[nH]c1=O [CBK295615] | 98.1
O=C(O)CCc1ccc(S(=O)(=O)Nc2ccccc2Cc2ccccc2)cc1 [CBK295616] | 99.6
Cc1nc2ccc(C(=O)c3ccccc3O)cn2c(=O)c1CCC(=O)O [CBK295618] | 94.5
Cc1c(C(=O)O)sc2nc3c(Cl)cc(C(=O)c4ccccc4O)cn3c(=O)c12 [CBK295619] | 98.5
O=C(CSc1n[nH]c(=O)n1C1CC1)NCCCSc1ccccc1 [CBK295620] | 104

Compound | viability at 28.5 h, 10 µM [%]
O=C(c1ccc(OC(F)F)cc1)N1CCCc2cc(S(=O)(=O)N3CCCCC3)ccc21 [CBK295621] | 118
CCCn1c(NC(=O)C2CCCN2S(=O)(=O)CC)nc2ccccc21 (stereo not drawn) [CBK295624] | 96.8
O=C(O)c1ccc2c(c1)CCN2S(=O)(=O)c1ccc(S(=O)(=O)N2CCOCC2)cc1 [CBK295625] | 97.1
Cc1cccc(C=C(Cl)c2nc3sc(C(=O)O)c(C)c3c(=O)[nH]2)c1 [CBK295626] | 91.6
Cc1nc2ccccc2c(C)c1C(=O)OCc1nc(N)nc(N(C)C)n1 [CBK295627] | 70.6
CCCCCC(=O)Nc1ccc(C(=O)Cn2nc(C(=O)O)c3ccccc3c2=O)cc1 [CBK295628] | 104
CCCc1ccc(S(=O)(=O)N2CCN(CC(=O)Nc3cc(C(C)C)no3)CC2)cc1 [CBK295629] | 114
COc1ccc(-c2n[nH]c(=S)n2CCC(=O)NCCc2cc(C)n(-c3ccccc3)c2C)cc1 [CBK295632] | 97.6
Cc1ccc(C(N)=O)c(OCC(=O)N2c3ccccc3CCC2C)c1 (stereo not drawn) [CBK295633] | 93.8
CC1Oc2ccccc2OC1C(=O)Nc1nnc(Cc2ccccc2)s1 (stereo not drawn) [CBK295634] | 90.5
CC(C)Cn1c(-c2ccc(F)cc2)cnc1SC(C)C(=O)NC(N)=O (stereo not drawn) [CBK295635] | 91.9
COc1ccc(Oc2ccc(C=Cc3nc4sc(C(=O)O)c(C)c4c(=O)[nH]3)cc2[N+](=O)[O-])cc1 [CBK295637] | 112
Cc1ccc(C=C(c2ccccc2)c2nc3sc(C(=O)O)c(C)c3c(=O)[nH]2)s1 [CBK295638] | 100
CC(C)(C)NC(=O)CN1CCN(C(=O)CSc2n[nH]c(=O)n2C2CC2)CC1 [CBK295641] | 94.5
O=c1c2ccsc2ncn1Cc1nnc(-c2ccc(Br)o2)o1 [CBK295642] | 88.7
Cc1cc(C(=O)COc2cccc(-n3cnnn3)c2)c(C)n1C(C)c1ccccc1 (stereo not drawn) [CBK295643] | 70.2
Cc1ccc(S(=O)(=O)N2CCC(C(=O)NC3(C(=O)O)CCCCC3)CC2)cc1 [CBK295644] | 109
Oc1ccc(CN2CCN(Cc3ccc(Br)s3)CC2)c2cccnc12 [CBK295645] | 89.5
COc1ccc(S(=O)(=O)N2CCC(C(=O)NC3(C(=O)O)CCCCC3)CC2)cc1OC [CBK295646] | 95.5
O=C(O)CCc1ccc(S(=O)(=O)Nc2ccc(N3CCCC3=O)cc2)cc1 [CBK295647] | 106
CCCn1c(SCC(=O)Nc2cc(C(C)(C)C)no2)n[nH]c1=O [CBK295648] | 104
